Calls of active or inactive are those of the source. The rule behind the calls is not given here.
Legend:
[1] = target: T1, M-phase inducer phosphatase 2 (Homo sapiens, UniProt P30305); assay: Inhibition of 6-His-N-terminal tagged human CDC-25B isoform 3 catalytic domain expressed in Escherichia coli BL21 (DE3) cells assessed as pNP formation using pNPP as substrate incubated for 15 mins prior to substrate addition by plate reader analysis
T1 sequence (P30305 whole entry): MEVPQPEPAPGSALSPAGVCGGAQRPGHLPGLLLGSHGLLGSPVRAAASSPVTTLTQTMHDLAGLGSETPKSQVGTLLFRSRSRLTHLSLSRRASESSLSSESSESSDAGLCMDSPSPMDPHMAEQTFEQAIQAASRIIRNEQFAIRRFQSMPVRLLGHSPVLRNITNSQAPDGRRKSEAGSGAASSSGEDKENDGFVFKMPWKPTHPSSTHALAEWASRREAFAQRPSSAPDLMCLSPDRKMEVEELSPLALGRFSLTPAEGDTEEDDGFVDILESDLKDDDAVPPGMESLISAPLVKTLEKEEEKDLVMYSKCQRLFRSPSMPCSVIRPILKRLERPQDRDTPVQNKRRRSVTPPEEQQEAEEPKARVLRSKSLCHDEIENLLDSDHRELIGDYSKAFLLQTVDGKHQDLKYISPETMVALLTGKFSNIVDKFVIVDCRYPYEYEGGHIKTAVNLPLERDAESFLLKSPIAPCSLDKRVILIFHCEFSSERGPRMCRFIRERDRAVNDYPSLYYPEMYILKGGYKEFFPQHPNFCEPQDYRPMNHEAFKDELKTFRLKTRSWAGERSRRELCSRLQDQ

[2] = target: T2, Tyrosine-protein phosphatase non-receptor type 1 (Homo sapiens, UniProt P18031); assay: Inhibition of 6-His-N-terminal tagged human PTP1B expressed in Escherichia coli BL21 (DE3) cells assessed as pNP formation using pNPP as substrate incubated for 15 mins prior to substrate addition by plate reader analysis
T2 sequence (P18031 whole entry): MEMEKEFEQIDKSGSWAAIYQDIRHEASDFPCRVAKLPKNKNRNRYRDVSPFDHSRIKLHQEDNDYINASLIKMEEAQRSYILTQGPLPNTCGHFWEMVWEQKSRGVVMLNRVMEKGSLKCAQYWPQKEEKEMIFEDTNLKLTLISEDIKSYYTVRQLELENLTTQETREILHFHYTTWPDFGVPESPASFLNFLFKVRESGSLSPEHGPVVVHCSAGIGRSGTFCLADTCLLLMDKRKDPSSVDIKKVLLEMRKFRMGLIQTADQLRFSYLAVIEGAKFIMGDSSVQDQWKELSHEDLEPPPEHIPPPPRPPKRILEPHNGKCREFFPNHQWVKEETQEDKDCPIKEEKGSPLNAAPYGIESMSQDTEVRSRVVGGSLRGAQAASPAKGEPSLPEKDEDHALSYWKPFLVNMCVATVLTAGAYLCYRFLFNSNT

[3] = target: T3, Low molecular weight phosphotyrosine protein phosphatase (Homo sapiens) (UniProt P24666); assay: Inhibition of full length 6-His-N-terminal tagged human LMW-PTP expressed in Escherichia coli BL21 (DE3) cells assessed as pNP formation using pNPP as substrate at 100 uM incubated for 15 mins prior to substrate addition by plate reader analysis
T3 sequence (whole entry): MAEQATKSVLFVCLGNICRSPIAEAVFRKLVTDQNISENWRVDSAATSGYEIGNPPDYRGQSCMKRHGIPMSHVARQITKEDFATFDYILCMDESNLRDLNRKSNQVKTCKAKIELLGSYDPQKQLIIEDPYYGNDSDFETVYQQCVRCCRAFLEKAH

[4] = Retardation factor of the compound using Hexanes:AcOEt (1:2) as solvent system by column chromatography; type: physicochemical
[5] = target: T4, M-phase inducer phosphatase 2 (Homo sapiens) (UniProt P30305); assay: Inhibition of 6-His-N-terminal tagged human CDC-25B isoform 3 catalytic domain expressed in Escherichia coli BL21 (DE3) cells assessed as pNP formation using pNPP as substrate at 100 uM incubated for 15 mins prior to substrate addition by plate reader analysis
T4 sequence (whole entry): T1 sequence (P30305 whole entry)

[6] = target: T5, Low molecular weight phosphotyrosine protein phosphatase (Homo sapiens, UniProt P24666); assay: Inhibition of full length 6-His-N-terminal tagged human LMW-PTP expressed in Escherichia coli BL21 (DE3) cells assessed as pNP formation using pNPP as substrate incubated for 15 mins prior to substrate addition by plate reader analysis
T5 sequence (P24666 whole entry): T3 sequence (whole entry)

[7] = target: T3, Low molecular weight phosphotyrosine protein phosphatase (Homo sapiens); assay: Mixed type of inhibition of full length 6-His-N-terminal tagged human LMW-PTP expressed in Escherichia coli BL21 (DE3) cells using pNPP as substrate by Lineweaver-Burk plot analysis
[8] = target: T6, Tyrosine-protein phosphatase non-receptor type 1 (Homo sapiens) (UniProt P18031); assay: Mixed type of inhibition of 6-His-N-terminal tagged human PTP1B expressed in Escherichia coli BL21 (DE3) cells using pNPP as substrate by Lineweaver-Burk plot analysis
T6 sequence (whole entry): T2 sequence (P18031 whole entry)

[9] = target: T6, Tyrosine-protein phosphatase non-receptor type 1 (Homo sapiens); assay: Time-dependent inhibition of 6-His-N-terminal tagged human PTP1B expressed in Escherichia coli BL21 (DE3) cells using pNPP as substrate treated with compound prior to substrate addition by plate reader analysis; details: TDE = time-dependent effect
[10] = Retardation factor of the compound using CHCl3:MeOH (9:1) as solvent system by column chromatography; type: physicochemical
[11] = target: T6, Tyrosine-protein phosphatase non-receptor type 1 (Homo sapiens); assay: Inhibition of 6-His-N-terminal tagged human PTP1B expressed in Escherichia coli BL21 (DE3) cells assessed as pNP formation using pNPP as substrate incubated for 15 mins prior to substrate addition by plate reader analysis in presence of 25 mM ammonium sulfate
[12] = Retardation factor of the compound using Hexanes:AcOEt (1:1) as solvent system by column chromatography; type: physicochemical
[13] = Retardation factor of the compound using Hexanes:AcOEt (7:3) as solvent system by column chromatography; type: physicochemical
[14] = Retardation factor of the compound using Hexanes:AcOEt (2:1) as solvent system by column chromatography; type: physicochemical
[15] = target: T6, Tyrosine-protein phosphatase non-receptor type 1 (Homo sapiens); assay: Binding affinity to 6-His-N-terminal tagged human PTP1B expressed in Escherichia coli BL21 (DE3) cells after 3 hrs by tryptophan emission monitoring analysis
[16] = target: T3, Low molecular weight phosphotyrosine protein phosphatase (Homo sapiens); assay: Binding affinity to full length 6-His-N-terminal tagged human LMW-PTP expressed in Escherichia coli BL21 (DE3) cells after 3 hrs by tryptophan emission monitoring analysis
Albumin = Albumin (Bos taurus, UniProt P02769); assay: Binding affinity to bovine serum albumin after 3 hrs by tryptophan emission monitoring analysis; details: cattle
[17] = target: Lysozyme C (Gallus gallus) (UniProt P00698); assay: Binding affinity to hen egg lysozyme after 3 hrs by tryptophan emission monitoring analysis
[18] = target: T6, Tyrosine-protein phosphatase non-receptor type 1 (Homo sapiens); assay: Binding affinity to 6-His-N-terminal tagged human PTP1B expressed in Escherichia coli BL21 (DE3) cells assessed as protein aggregate formation up to 100 uM after 1 hr by native PAGE analysis
[19] = target: T3, Low molecular weight phosphotyrosine protein phosphatase (Homo sapiens); assay: Binding affinity to full length 6-His-N-terminal tagged human LMW-PTP expressed in Escherichia coli BL21 (DE3) cells assessed as protein aggregate formation up to 100 uM after 1 hr by native PAGE analysis
[20] = target: T3, Low molecular weight phosphotyrosine protein phosphatase (Homo sapiens); assay: Inhibition of full length 6-His-N-terminal tagged human LMW-PTP expressed in Escherichia coli BL21 (DE3) cells assessed as pNP formation using pNPP as substrate at 100 uM by plate reader analysis in presence of 50 mM MgCl2
[21] = target: T4, M-phase inducer phosphatase 2 (Homo sapiens); assay: Inhibition of 6-His-N-terminal tagged human CDC-25B isoform 3 catalytic domain expressed in Escherichia coli BL21 (DE3) cells assessed as pNP formation using pNPP as substrate at 100 uM by plate reader analysis in presence of 50 mM MgCl2
[22] = target: T6, Tyrosine-protein phosphatase non-receptor type 1 (Homo sapiens); details: BL21-DE3, 5 uM
Description: Reversible inhibition of 6-His-N-terminal tagged human PTP1B expressed in Escherichia coli BL21 (DE3) cells using pNPP as substrate at 5 uM incubated for 15 mins prior to substrate addition measured after drug wash out by plate reader analysis

Sequence of Lysozyme C (Gallus gallus) (P00698 whole entry): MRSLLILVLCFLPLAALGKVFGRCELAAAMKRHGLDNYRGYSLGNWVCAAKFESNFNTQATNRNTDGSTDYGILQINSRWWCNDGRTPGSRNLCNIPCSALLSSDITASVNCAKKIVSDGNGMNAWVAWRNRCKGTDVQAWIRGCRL
Sequence of Albumin (P02769 whole entry): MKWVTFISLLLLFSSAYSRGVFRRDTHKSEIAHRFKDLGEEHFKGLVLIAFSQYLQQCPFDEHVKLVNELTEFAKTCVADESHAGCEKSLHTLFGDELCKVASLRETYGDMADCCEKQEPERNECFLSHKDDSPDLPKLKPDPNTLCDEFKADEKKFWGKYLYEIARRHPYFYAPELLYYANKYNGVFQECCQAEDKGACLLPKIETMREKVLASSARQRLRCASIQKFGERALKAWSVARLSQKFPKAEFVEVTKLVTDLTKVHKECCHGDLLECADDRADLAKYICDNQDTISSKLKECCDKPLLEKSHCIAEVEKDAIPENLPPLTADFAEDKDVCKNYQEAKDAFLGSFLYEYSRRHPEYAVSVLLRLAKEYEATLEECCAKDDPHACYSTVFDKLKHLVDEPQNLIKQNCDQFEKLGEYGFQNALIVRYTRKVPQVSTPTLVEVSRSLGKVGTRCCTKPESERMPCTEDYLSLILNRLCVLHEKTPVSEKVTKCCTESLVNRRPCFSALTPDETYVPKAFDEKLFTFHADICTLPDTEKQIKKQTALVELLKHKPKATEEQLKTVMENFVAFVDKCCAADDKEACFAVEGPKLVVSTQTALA

IC50 [1]	IC50 [2]	IC50 [6]	also measured	SMILES
> 100 µM	72.7 µM		inhibition [3]: inactive; Rf [4]: 0.5	CC(C)C(=O)C1=C(O)OC(C)(C)OC1=O
	> 100 µM		inhibition [3]: inactive; inhibition [5]: inactive; Rf [4]: 0.47	CCCC(=O)C1=C(O)OC(C)(C)OC1=O
13.6 µM	15.6 µM	> 100 µM	inhibition [7]: Active; inhibition [8]: Active; inhibition [9]: tde; Rf [10]: 0.5	CCCCCCCCCCCCCCCC(=O)C1=C(O)CC(CO)OC1=O (stereo unspecified)
13.7 µM	1 µM	22 µM	inhibition [7]: Active; inhibition [8]: Active; inhibition [9]: tde; inhibition [11]: inactive; Rf [12]: 0.5	CCCCCCCCCCCCCCCC(=O)C1=C(O)OC(C)(C)OC1=O
7.2 µM	5.6 µM	> 100 µM	Rf [13]: 0.71	CCCCCCCCCCCCCCCC(=O)C1=C(O)CC(COCc2ccccc2)OC1=O (stereo unspecified)
10.8 µM	0.4 µM	10 µM		CCCCCCCCCCCCCCCC(=O)C1=C(O)C(COC(C)=O)OC1=O (stereo unspecified)
5.9 µM	0.3 µM	3.8 µM		CCCCCCCCCCCCCCCC(=O)C1=C(O)C(COC(=O)c2ccc(C(=O)c3ccccc3)cc2)OC1=O (stereo unspecified)
8 µM	0.4 µM	3.3 µM		CCCCCCCCCCCCCCCC(=O)C1=C(O)C(COS(C)(=O)=O)OC1=O (stereo unspecified)
6.5 µM	0.6 µM	5.3 µM	Rf [12]: 0.51	CCCCCCCCCCCCCCCCCC(=O)C1=C(O)OC(C)(C)OC1=O
6.3 µM	0.5 µM	10.1 µM		CCCCCCCCCCCCCCCC(=O)C1=C(O)C(COC(=O)c2ccccc2C(=O)c2ccccc2)OC1=O (stereo unspecified)
7 µM	0.8 µM	9.6 µM	Rf [14]: 0.59	CCCCCCCCCCCCCCCC(=O)C1=C(O)OC2(CCCC2)OC1=O
	> 100 µM		inhibition [3]: inactive; inhibition [5]: inactive	CC(=O)C1=C(O)OC(C)(C)OC1=O
5.5 µM	0.8 µM	29.3 µM	Rf [14]: 0.42	CCCCCCCCCCCCCCCC(=O)C1=C(O)OC(C)(CC)OC1=O (stereo unspecified)
> 100 µM	8.2 µM	> 100 µM	Activity [15]: Active; Activity [16]: Active; Activity (Albumin): Active; Activity [17]: Active; Activity [18]: inactive; Activity [19]: inactive; Rf [13]: 0.72	CCCCCCCCCCCCCCCC(=O)OC1=CC(=O)OC(COCc2ccccc2)C1 (stereo unspecified)
7.4 µM	0.4 µM	2.5 µM		C=C1OC(=O)C(C(=O)CCCCCCCCCCCCCCC)=C1O
4.6 µM	1.1 µM	> 100 µM	Rf [14]: 0.59	CCCCCCCCCCCCCCCC(=O)C1=C(O)OC(CC)(CC)OC1=O
12.4 µM	0.7 µM	8.6 µM	inhibition [20]: inactive; inhibition [21]: inactive; inhibition [7]: Active; inhibition [8]: Active; inhibition [9]: tde; inhibition [11]: inactive; Activity [15]: Active; Activity [16]: Active; Activity (Albumin): Active; Activity [17]: Active; Activity [18]: Active; Activity [19]: Active; inhibition [22]: Active	CCCCCCCCCCCCCCCC(=O)C1=C(O)C(CO)OC1=O (racemic)
> 100 µM	28.7 µM	> 100 µM	Rf [14]: 0.49	CCCCCCCCCC(=O)C1=C(O)OC(C)(C)OC1=O
